One molecule from publication PMC10449848, “Structural basis of lipid-droplet localization of 17-beta-hydroxysteroid dehydrogenase 13” (Nature Communications, 2023) can be followed below.

Test [1] deals with T1, human HSD17B13 (Homo sapiens, UniProt Q7Z5P4).
T1 construct: human HSD17B13 (residues 2-300, NP_835236.2); 10x His (N); TEV protease site (N); made in house; host or cells: Sf9 (baculovirus)
T1 sequence (Q7Z5P4 2-300): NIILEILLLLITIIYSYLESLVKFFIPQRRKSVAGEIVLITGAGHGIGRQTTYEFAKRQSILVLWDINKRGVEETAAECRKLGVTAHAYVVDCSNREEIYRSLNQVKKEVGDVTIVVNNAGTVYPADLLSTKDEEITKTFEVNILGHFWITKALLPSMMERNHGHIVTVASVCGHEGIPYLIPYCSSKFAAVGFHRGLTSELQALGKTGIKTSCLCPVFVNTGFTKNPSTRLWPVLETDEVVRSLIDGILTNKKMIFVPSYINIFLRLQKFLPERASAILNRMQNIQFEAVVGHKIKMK
Description: HSD17B13 purified protein biochemical enzyme activity assay, NAD(P)H-Glo luciferase readout. To be noted: Leukotriene B4 as substrate, NAD+ cofactor.

For a further test, the target named is T2, human HSD17B11 (Homo sapiens, UniProt Q8NBQ5).
T2 construct: human HSD17B11 (residues 2-300, NP_057329.3); 10x His (N); TEV protease site (N); made in house; host or cells: Sf9 (baculovirus)
T2 sequence (Q8NBQ5 2-300): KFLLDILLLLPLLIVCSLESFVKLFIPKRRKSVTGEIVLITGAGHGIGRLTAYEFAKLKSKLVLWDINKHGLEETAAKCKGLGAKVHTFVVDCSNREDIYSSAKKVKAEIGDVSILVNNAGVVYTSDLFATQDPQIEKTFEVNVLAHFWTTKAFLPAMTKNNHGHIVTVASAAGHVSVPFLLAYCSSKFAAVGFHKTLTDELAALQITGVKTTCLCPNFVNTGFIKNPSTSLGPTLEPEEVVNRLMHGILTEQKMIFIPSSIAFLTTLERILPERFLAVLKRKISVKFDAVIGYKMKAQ
Description: Thermal shift assay (static light scattering, Tagg), human HSD17B11. It counts as binding. To be noted: Fig. 6d, 500 μM NAD+. The source says: Because of the low enzymatic activities of dog wild-type HSD17B13 (Fig. 6a) and HSD17B11 with β-estradiol, it was difficult to measure compound inhibition of these proteins in a biochemical assay and we instead utilized direct binding methods to compare compounds interaction with different proteins. To understand ligand binding, we tested several approaches such as surface plasmon resonance and isothermal calorimetry. Like many membrane/detergent-associated proteins, however, these methods were not amenable for HSD17B13. We next turned to thermal shift assays (TSA) for comparing ligand binding affinities. TSA measures the changes in the thermal denaturation temperature of a protein under different conditions such as the presence compound, changes in buffer conditions, or sequence mutations. There are various readouts including intrinsic fluorescence or light scattering signals. We chose the static light scattering methods to detect the temperatures at which our proteins start to aggregate (Tagg), which are more suitable for membrane proteins that require detergent micelles for stability. Given that in theory[51] and in practice Tagg continues to increase with concentration of ligands far above their IC50s, we used high cofactor and inhibitor concentrations in the TSA experiments to maximize the ligand binding signal.
TSA studies were run on the UNit instrument (Unchained Labs, CA, USA). Experiments were run in either 25 mM sodium phosphate pH 7, 150 mM NaCl, 10% glycerol, 1 mM TCEP, 0.05% DDM, + different cofactors (NAD^+, NADH, NADP, NADPH; MilliporeSigma) or 25 mM HEPES pH 7.2, 300 mM NaCl, 0.5 mM TCEP, 0.05% DDM, 10% glycerol, ±500 µM NAD^+, and ±100 µM compound 1 (from 2 mM DMSO stock) or DMSO or 50 mM Hepes pH 7.5, 300 mM NaCl, 0.5 mM TCEP, 0.05% DDM, 500 µM NAD^+, ± 50 µM compounds (from 2 mM stock) or DMSO. Protein aggregation was measured by static light scattering at 266 and 473 nm with a 1 °C/sec ramp rate from 20-80 °C. The data was processed using the UNcle software (Unchained Labs, CA, USA), and temperatures at which the protein started aggregation were recorded as Tagg. Reported Tagg and analysis were based on measurements at 266 nm unless otherwise indicated. The protein concentration used was 10.4 μM.

Test [2] deals with T1, human HSD17B13. As to the kind of experiment: HSD17B13 purified protein biochemical enzyme activity assay, NAD(P)H-Glo luciferase readout. The following applies: IC 50 mean, Supplementary Figure 8 source data, unit inferred, uM printed. The procedure:
HSD17B13 enzyme inhibition potency of test compounds was determined using a purified protein biochemical enzyme activity assay, using NAD(P)H-Glo luciferase readout (Promega). HSD17B13 enzyme uses the oxidized form of nicotinamide adenine dinucleotide (NAD^+) as a cofactor during metabolism of β-estradiol (substrate) to […] (product), while converting NAD^+ to the reduced form (NADH). The Promega NAD(P)H-Glo™ assay is a homogeneous bioluminescent assay that generates a light signal from biochemical reactions that contain NADH (or nicotinamide adenine dinucleotide phosphate, NADPH). In the presence of NADH (or NADPH), the enzyme Reductase reduces a proluciferin reductase substrate to form luciferin. Luciferin then is quantified using Ultra-Glo™ Recombinant Luciferase (rLuciferase), and the light signal produced is proportional to the amount of NAD(P)H in the sample. […] The reaction was initiated by the addition of 2 µL/well purified HSD17B13 protein (30 nM FAC in assay buffer). […] Detection reagent was incubated in the dark for 1 hour at room temperature before plates were read on the Envision plate reader (Perkin Elmer) using a luminescent protocol. Data expressed as relative luminescent units (RLUs) were then normalized to control wells using Activity Base (IDBS). […]

Where “and” joins values, the source holds several entries; their conditions need not be identical. Equal values may be shown once.

The IC50 is the concentration that inhibits the measured activity by half. As for `O=C(NC[C@]1(O)CC[C@H](COc2ccccc2F)CC1)c1ccc(O)c(F)c1` [Compound 1], the IC50 on human HSD17B13 [1] was 250 ± 90 nM; at human HSD17B13 [2], 0.18 µM. Further, the “effect on protein stability in TSA” value on human HSD17B11 is listed as “neither 1 nor 2 showed an effect on protein stability”. For the same molecule, at human HSD17B11 (50 µM compound), the Tagg was 37.65 °C and 35.79 °C and 38.54 °C and 39 °C and 39.99 °C and 38.79 °C and 39.64 °C and 38.95 °C.
